Patent US20140263071A1, “METHOD FOR COLLECTING METALS” (CHEMEC OY AB, priority 2011, published 2014)
Marks after values point to notes of the source that are not given here.

Tests used:
[1] = Removal of Cr^3+ from acidic solution, TS 4 diluted 1:100 (Example 19); details: TS 4 diluted 1:100, pH 3.67, 1.0 g agent in 50 ml, 24 h
Protocol: A test solution containing 24000 mg/l of Na^+; 50-2000 mg/l of Ca^2+, Cr^3+, K^+ and Mg^2+; and trace amount of Al^3+, Fe^2/3+, Mn^2+, Ni^2+, Sr^2+, V^4+, and Zn^2+ cations were prepared.
TS 4 was diluted to 1:100 with water, pH (3.67) of the solution was determined and sample A was taken. A part (50 ml) of the diluted solution was treated with 1a, 6d or 7a (1.0 g) for 24 h with stirring at room temperature. After filtration trough 0.2 μm syringe filter, the expulsion per for Cr(III) was determined compared to original solution A. The results of expulsion per cents of Cr^3+ and some other elements are given in Table 13.

[2] = Collection capacity (Example 10); details: 100 ppm starting concentration
Protocol: A water solution (110 ml) containing known amount of single cationic element or elements, typically 0.5-200 ppm, was prepared from Merch Titrisol® standard solution. After adjusting pH by using acid (e.g. HCl or HNO3) or base (e.g. NaOH) to desired initial value, sample A (10 ml) was taken followed by adding 100 mg of selected solid complexation agent. The mixture was stirred at room temperature for 24 h and sample B (10 ml) was taken. Samples A and B were filtrated separately trough 0.2 μm syringe filter and the concentration of the studied element or elements in both solution was determined by using atomic absorption spectrophotometer. The expulsion percent was determined from the concentration differences between the sample solutions A and B.
Capacity of 1a to collect selected metals were determined following the general procedure described above by using 100 ppm starting metal concentration in each experiment and 1a (100 mg) at selected pH. Amounts of removed metals from the mixture were determined by using AAS. Results are collected in table 5 and are given in mg of metal bound to 1 g of 1a.

[3] = Effect of contact time on expulsion percent, Pb^2+ and Hg^2+ spiked TS 5, 1a 100 mg/100 ml (Example 13)
Protocol: A test solution containing 1-15 mg/l of Al^3+, Fe^2/3+, Mg^2+, Mn^2+, Ni^2+ and Zn^2+; 0.1-0.9 mg/l of Ca^2+ and Na^+; and trace amount of other Cr^3+, Co^2+, Cu^2+, Eu^3+, La^3+, Nd^3+, Y^3+, UO2^2+ and Nb^5+ cations were prepared.
Effect of contact time to selected metal expulsion per cents was tested using TS 5 with comlexation agent 1a. TS 5 (100 ml), spiked with known amounts of lead (Pb^2+) and mercury (Hg^2+) cations, was stirred with 1a (100 mg) for selected times followed by separation of 1a by filtration trough 0.2 μm syringe filter. Metal concentrations after 5 min, 15 min, 30 min, 1 h, 2 h, 3.5 h, 6.5 h and 29.5 h were determined by using ICP-AES analysis.

NCCCCCCCCCCC(O)(P(=O)(O)O)P(=O)(O)O [Compound 1a, 11-Amino-1-hydroxyundecane-1,1-diyldiphosphonic acid]
Expulsion [%] Ca^2+ ([1]; Ca^2+): 67% | Expulsion [%] Cr^3+ ([1]; Cr^3+): 91% | Expulsion [%] K^+ ([1]; K^+): 36% | Expulsion [%] Mg^2+ ([1]; Mg^2+): 74% | Expulsion [%] Na^+ ([1]; Na^+): 14% | Expulsion [%] Zn^2+ ([1]; Zn^2+): >39^1) % | Capacity ([2]; Ag^+, pH 2.5): 94.6 mg/g | Capacity ([2]; Au^3+, pH 4.0): 19.0 mg/g | Capacity ([2]; Ca^2+, pH 4.0): 50.9 mg/g | Capacity ([2]; Cd^2+, pH 4.0): 74.1 mg/g | Capacity ([2]; Co^2+, pH 4.5): 85.5 mg/g | Capacity ([2]; Cr^3+, pH 3.5): 9.9 mg/g | Capacity ([2]; Cu^2+, pH 4.0): 61.6 mg/g | Capacity ([2]; Fe^2+, pH 3.0): 82.7 mg/g | Capacity ([2]; Fe^3+, pH 3.0): 15.2 mg/g | Capacity ([2]; Mo^6+, pH 9.1): 97.2 mg/g | Capacity ([2]; Ni^2+, pH 4.0): 13.1 mg/g | Capacity ([2]; Pb^2+, pH 4.0): 85.6 mg/g | Capacity [mg/g] ([2]; Sc^3+, pH 2.0): 16.9^1) mg/g | Capacity ([2]; Zn^2+, pH 4.0): 70.9 mg/g | Expulsion [%] ([3]; Al^3+, 5 min): 8.3% | Expulsion [%] ([3]; Al^3+, 15 min): 5.5% | Expulsion [%] ([3]; Al^3+, 30 min): 7.1% | Expulsion [%] ([3]; Al^3+, 60 min): 5.9% | Expulsion [%] ([3]; Al^3+, 120 min): 8.7% | Expulsion [%] ([3]; Al^3+, 210 min): 18.5% | Expulsion [%] ([3]; Al^3+, 390 min): 26.0% | Expulsion [%] ([3]; Al^3+, 1770 min): 27.2% | Expulsion [%] ([3]; Ca^2+, 5 min): 2.7% | Expulsion [%] ([3]; Ca^2+, 15 min): 0% | Expulsion [%] ([3]; Ca^2+, 30 min): 0% | Expulsion [%] ([3]; Ca^2+, 60 min): 0% | Expulsion [%] ([3]; Ca^2+, 120 min): 0% | Expulsion [%] ([3]; Ca^2+, 210 min): 0% | Expulsion [%] ([3]; Ca^2+, 390 min): 9.8% | Expulsion [%] ([3]; Ca^2+, 1770 min): 18.7% | Expulsion [%] ([3]; Cd^2+, 5 min): 2.9% | Expulsion [%] ([3]; Cd^2+, 15 min): 3.9% | Expulsion [%] ([3]; Cd^2+, 30 min): 5.1% | Expulsion [%] ([3]; Cd^2+, 60 min): 7.5% | Expulsion [%] ([3]; Cd^2+, 120 min): 10.9% | Expulsion [%] ([3]; Cd^2+, 210 min): 15.0% | Expulsion [%] ([3]; Cd^2+, 390 min): 28.1% | Expulsion [%] ([3]; Cd^2+, 1770 min): 36.6% | Expulsion [%] ([3]; Fe^2/3+, 5 min): 0% | Expulsion [%] ([3]; Fe^2/3+, 15 min): 0.7% | Expulsion [%] ([3]; Fe^2/3+, 30 min): 0% | Expulsion [%] ([3]; Fe^2/3+, 60 min): 3.0% | Expulsion [%] ([3]; Fe^2/3+, 120 min): 6.7% | Expulsion [%] ([3]; Fe^2/3+, 210 min): 8.9% | Expulsion [%] ([3]; Fe^2/3+, 390 min): 20.7% | Expulsion [%] ([3]; Fe^2/3+, 1770 min): 19.3% | Expulsion [%] ([3]; Hg^2+, 5 min): 59.9% | Expulsion [%] ([3]; Hg^2+, 15 min): 60.4% | Expulsion [%] ([3]; Hg^2+, 30 min): 58.5% | Expulsion [%] ([3]; Hg^2+, 60 min): 56.4% | Expulsion [%] ([3]; Hg^2+, 120 min): 57.1% | Expulsion [%] ([3]; Hg^2+, 210 min): 55.7% | Expulsion [%] ([3]; Hg^2+, 390 min): 57.0% | Expulsion [%] ([3]; Hg^2+, 1770 min): 49.6% | Expulsion [%] ([3]; Mg^2+, 5 min): 1.4% | Expulsion [%] ([3]; Mg^2+, 15 min): 1.8% | Expulsion [%] ([3]; Mg^2+, 30 min): 0.2% | Expulsion [%] ([3]; Mg^2+, 60 min): 4.4% | Expulsion [%] ([3]; Mg^2+, 120 min): 5.8% | Expulsion [%] ([3]; Mg^2+, 210 min): 6.9% | Expulsion [%] ([3]; Mg^2+, 390 min): 16.4% | Expulsion [%] ([3]; Mg^2+, 1770 min): 19.8% | Expulsion [%] ([3]; Mn^2+, 5 min): 3.4% | Expulsion [%] ([3]; Mn^2+, 15 min): 4.3% | Expulsion [%] ([3]; Mn^2+, 30 min): 4.3% | Expulsion [%] ([3]; Mn^2+, 60 min): 6.3% | Expulsion [%] ([3]; Mn^2+, 120 min): 10.5% | Expulsion [%] ([3]; Mn^2+, 210 min): 13.1% | Expulsion [%] ([3]; Mn^2+, 390 min): 27.0% | Expulsion [%] ([3]; Mn^2+, 1770 min): 29.1% | Expulsion [%] ([3]; Ni^2+, 5 min): 1.4% | Expulsion [%] ([3]; Ni^2+, 15 min): 1.8% | Expulsion [%] ([3]; Ni^2+, 30 min): 1.4% | Expulsion [%] ([3]; Ni^2+, 60 min): 4.1% | Expulsion [%] ([3]; Ni^2+, 120 min): 5.0% | Expulsion [%] ([3]; Ni^2+, 210 min): 7.8% | Expulsion [%] ([3]; Ni^2+, 390 min): 13.2% | Expulsion [%] ([3]; Ni^2+, 1770 min): 15.5% | Expulsion [%] ([3]; Pb^2+, 5 min): 28.5% | Expulsion [%] ([3]; Pb^2+, 15 min): 34.7% | Expulsion [%] ([3]; Pb^2+, 30 min): 56.3% | Expulsion [%] ([3]; Pb^2+, 60 min): 49.4% | Expulsion [%] ([3]; Pb^2+, 120 min): 65.7% | Expulsion [%] ([3]; Pb^2+, 210 min): 89.8% | Expulsion [%] ([3]; Pb^2+, 390 min): 94.6% | Expulsion [%] ([3]; Pb^2+, 1770 min): 98.1% | Expulsion [%] ([3]; Zn^2+, 5 min): 2.5% | Expulsion [%] ([3]; Zn^2+, 15 min): 3.7% | Expulsion [%] ([3]; Zn^2+, 30 min): 4.9% | Expulsion [%] ([3]; Zn^2+, 60 min): 6.5% | Expulsion [%] ([3]; Zn^2+, 120 min): 9.8% | Expulsion [%] ([3]; Zn^2+, 210 min): 13.9% | Expulsion [%] ([3]; Zn^2+, 390 min): 27.1% | Expulsion [%] ([3]; Zn^2+, 1770 min): 30.8%
